Results from patent US20260035387A1 (BIOGEN MA INC., priority 2022, published 2026).

System: mutant Huntington (HTT) protein
Assay: HTT Mutant HTRF iPSC assay (mHTT protein lowering)
Type: cell-based
Settings: human iPSC derived from a HTT patient with a poly-Q49 mutation

`Cc1cn2cc(NC(=O)c3nc4ccc(N5C[C@H]6CN(C)C[C@H]65)nc4s3)cc(F)c2n1` [Compound 104, N-(8-fluoro-2-methylimidazo[1,2-a]pyridin-6-yl)-5-((1R,5S)-3-methyl-3,6-diazabicyclo[3.2.0]heptan-6-yl)thiazolo[5,4-b]pyridine-2-carboxamide] and `Cc1cn2cc(NC(=O)c3nc4ccc(N5CCC6(CCCN6C)C5)nc4s3)cc(F)c2n1` (stereo not shown) [Compound 98, N-(8-fluoro-2-methylimidazo[1,2-a]pyridin-6-yl)-5-(1-methyl-1,7-diazaspiro[4.4]nonan-7-yl)thiazolo[5,4-b]pyridine-2-carboxamide] cannot be ordered by IC50: less than 0.1 µM for the first, less than 0.1 µM for the second.

Compared with `COc1cc(NC(=O)c2cc3ccc(N4CCC(N(C)C)C4)nc3s2)cn2cc(C)nc12` (stereo not shown) [Compound 72, 6-(3-(dimethylamino)pyrrolidin-1-yl)-N-(8-methoxy-2-methylimidazo[1,2-a]pyridin-6-yl)thieno[2,3-b]pyridine-2-carboxamide], `Cc1cn2cc(NC(=O)c3cc4ccc(N5CC[C@H](N(C)C)C5)nc4s3)cc(F)c2n1` [Compound 54, 6-[(3S)-3-(dimethylamino)pyrrolidin-1-yl]-N-(8-fluoro-2-methyl-imidazo[1,2-a]pyridin-6-yl)thieno[2,3-b]pyridine-2-carboxamide] is lower in IC50: 0.1 to 1 µM for the first, less than 0.1 µM for the second.

First: COc1c(NC(=O)c2nc3ccc(N4CCC(N5CCC5)C4)nc3s2)cn2cc(C)nc2c1F (racemic) [Compound 126, 5-(3-(azetidin-1-yl)pyrrolidin-1-yl)-N-(8-fluoro-7-methoxy-2-methylimidazo[1,2-a]pyridin-6-yl)thiazolo[5,4-b]pyridine-2-carboxamide]
Second: COc1cc2nn(C)cc2cc1NC(=O)c1cc2nc(N3CCC(N4CCC4)C3)ccc2o1 (stereo not shown) [Compound 164, 5-(3-(azetidin-1-yl)pyrrolidin-1-yl)-N-(6-methoxy-2-methyl-2H-indazol-5-yl)furo[3,2-b]pyridine-2-carboxamide]
The IC50 of the first is lower: less than 0.1 µM for the first, 0.1 to 1 µM for the second. The first is the more potent here.

`CN(C)[C@@H]1CCN(c2ccc3cc(C(=O)Nc4cc(F)c5nn(C)cc5c4)sc3n2)C1` [Compound 192, (R)-6-(3-(dimethylamino)pyrrolidin-1-yl)-N-(7-fluoro-2-methyl-2H-indazol-5-yl)thieno[2,3-b]pyridine-2-carboxamide] and `Cc1cn2cc(NC(=O)c3cc4ccc(N5CC[C@@H](N(C)C)C5)nc4s3)cc(F)c2n1` [Compound 55, 6-[(3R)-3-(dimethylamino)pyrrolidin-1-yl]-N-(8-fluoro-2-methyl-imidazo[1,2-a]pyridin-6-yl)thieno[2,3-b]pyridine-2-carboxamide] cannot be ordered by IC50: less than 0.1 µM for the first, less than 0.1 µM for the second.

`Cc1cn2cc(NC(=O)c3cc4ccc(OC5CCN(C)C5)nc4s3)cc(F)c2n1` (racemic) [Compound 159, N-(8-fluoro-2-methylimidazo[1,2-a]pyridin-6-yl)-6-((1-methylpyrrolidin-3-yl)oxy)thieno[2,3-b]pyridine-2-carboxamide] and `CNC1CCN(c2ccc3cc(C(=O)Nc4cc(F)c5nc(C)cn5c4)sc3n2)C1` (stereo not shown) [Compound 238, N-(8-fluoro-2-methylimidazo[1,2-a]pyridin-6-yl)-6-(3-(methylamino)pyrrolidin-1-yl)thieno[2,3-b]pyridine-2-carboxamide] cannot be ordered by IC50: less than 0.1 µM for the first, less than 0.1 µM for the second.

`Cc1cn2cc(NC(=O)c3cc4ccc(N5CC[C@@]6(CCCN6C)C5)nc4s3)nc(C(F)F)c2n1` (single isomer, unassigned) [Compound 254] and `CNC1CCN(c2ccc3cc(C(=O)Nc4cn5cc(C)nc5c(C)n4)sc3n2)C1` (stereo not shown) [Compound 219, N-(2,8-dimethylimidazo[1,2-a]pyrazin-6-yl)-6-(3-(methylamino)pyrrolidin-1-yl)thieno[2,3-b]pyridine-2-carboxamide] cannot be ordered by IC50: less than 0.1 µM for the first, less than 0.1 µM for the second.

First: COc1cc2nn(C)cc2cc1NC(=O)c1nc2ccc(N3CCC4(CN(C)C4)C3)nc2s1 [Compound 88, N-(6-methoxy-2-methyl-2H-indazol-5-yl)-5-(2-methyl-2,6-diazaspiro[3.4]octan-6-yl)thiazolo[5,4-b]pyridine-2-carboxamide]
Second: COc1cc2nn(C)cc2cc1NC(=O)c1cc2nc(N3CC[C@H](N4CCC4)C3)ccc2o1 [Compound 173, (S)-5-(3-(azetidin-1-yl)pyrrolidin-1-yl)-N-(6-methoxy-2-methyl-2H-indazol-5-yl)furo[3,2-b]pyridine-2-carboxamide]
The IC50 of the first is lower: less than 0.1 µM for the first, 0.1 to 1 µM for the second. The first is the more potent here.

`Cc1cn2cc(NC(=O)c3cc4ccc(N5CC6CCNC6C5)nc4s3)cc(F)c2n1` (stereo not shown) [Compound 237, N-(8-fluoro-2-methylimidazo[1,2-a]pyridin-6-yl)-6-(hexahydropyrrolo[3,4-b]pyrrol-5(1H)-yl)thieno[2,3-b]pyridine-2-carboxamide] and `Cc1cn2cc(NC(=O)c3cc4ccc(N5C[C@H]6CN[C@H]6C5)nc4s3)cc(F)c2n1` [Compound 202, 6-((1R,5R)-3,6-diazabicyclo[3.2.0]heptan-3-yl)-N-(8-fluoro-2-methylimidazo[1,2-a]pyridin-6-yl)thieno[2,3-b]pyridine-2-carboxamide] cannot be ordered by IC50: less than 0.1 µM for the first, less than 0.1 µM for the second.

`COc1cc(NC(=O)c2cc3nc(N4C[C@H]5CN(C)C[C@H]54)ccc3o2)cn2cc(C)nc12` (stereo in doubt) [Compound 168, N-(8-methoxy-2-methyl-imidazo[1,2-a]pyridin-6-yl)-5-[(1R,5S)-3-methyl-3,6-diazabicyclo[3.2.0]heptan-6-yl]furo[3,2-b]pyridine-2-carboxamide] and `Cc1nc(NC(=O)c2cc3ccc(N4C[C@@H]5CN(C)C[C@@H]54)nc3s2)cc2cn(C)nc12` [Compound 229, N-(2,7-dimethyl-2H-pyrazolo[3,4-c]pyridin-5-yl)-6-((1S,5R)-3-methyl-3,6-diazabicyclo[3.2.0]heptan-6-yl)thieno[2,3-b]pyridine-2-carboxamide] cannot be ordered by IC50: less than 0.1 µM for the first, less than 0.1 µM for the second.

First: CN(C)C1CCN(c2ccc3cc(C(=O)Nc4cnn5c(C(F)(F)F)ccnc45)sc3n2)C1 (stereo not shown) [Compound 60, 6-(3-(dimethylamino)pyrrolidin-1-yl)-N-(7-(trifluoromethyl)pyrazolo[1,5-a]pyrimidin-3-yl)thieno[2,3-b]pyridine-2-carboxamide]
Second: Cc1cn2cc(NC(=O)c3cc4ccc(N5CCC(N(C)C)C5)nc4s3)nc(C)c2n1 (stereo not shown) [Compound 5, 6-(3-(dimethylamino)pyrrolidin-1-yl)-N-(2,8-dimethylimidazo[1,2-a]pyrazin-6-yl)thieno[2,3-b]pyridine-2-carboxamide]
The IC50 of the first is higher: 1 to 9 µM for the first, 0.1 to 1 µM for the second.

Compared with `Cc1cn2cc(NC(=O)c3cc4ccc(N5C[C@H]6C[C@@H]5CN6C(C)C)nc4s3)ccc2n1` (stereo in doubt) [Compound 34, 6-((1R,4R)-5-isopropyl-2,5-diazabicyclo[2.2.1]heptan-2-yl)-N-(2-methylimidazo[1,2-a]pyridin-6-yl)thieno[2,3-b]pyridine-2-carboxamide], `Cc1cn2cc(NC(=O)c3cc4ccc(N5CCCN(C)CC5)nc4s3)ccc2n1` [Compound 40, 6-(4-methyl-1,4-diazepan-1-yl)-N-(2-methylimidazo[1,2-a]pyridin-6-yl)thieno[2,3-b]pyridine-2-carboxamide] is higher in IC50: less than 0.1 µM for the first, 0.1 to 1 µM for the second. The first is the more potent here.

`Cc1cn2cc(NC(=O)c3cc4ccc(C5=CCCNC5)nc4s3)cc(F)c2n1` [Compound 84, N-(8-fluoro-2-methyl-imidazo[1,2-a]pyridin-6-yl)-6-(1,2,3,6-tetrahydropyridin-5-yl)thieno[2,3-b]pyridine-2-carboxamide] and `Cc1cn2cc(C(=O)Nc3cc4ccc(N5CC[C@H](N(C)C)C5)nc4s3)cc(F)c2n1` [Compound 153, N-[6-[(3S)-3-(dimethylamino)pyrrolidin-1-yl]thieno[2,3-b]pyridin-2-yl]-8-fluoro-2-methyl-imidazo[1,2-a]pyridine-6-carboxamide] cannot be ordered by IC50: less than 0.1 µM for the first, less than 0.1 µM for the second.

`COc1c(NC(=O)c2cc3ccc(C4CCN(C)CC4)nc3s2)cc2cn(C)nc2c1F` [Compound 249, N-(7-fluoro-6-methoxy-2-methyl-2H-indazol-5-yl)-6-(1-methylpiperidin-4-yl)thieno[2,3-b]pyridine-2-carboxamide] and `CCN1CCN(c2ccc3cc(C(=O)Nc4cc5cc(C)nn5cc4OC)sc3n2)CC1` [Compound 183, 6-(4-ethylpiperazin-1-yl)-N-(6-methoxy-2-methylpyrazolo[1,5-a]pyridin-5-yl)thieno[2,3-b]pyridine-2-carboxamide] cannot be ordered by IC50: less than 0.1 µM for the first, less than 0.1 µM for the second.

Compared with `Cc1cn2cc(NC(=O)c3cc4ccc(Nc5ccc(N6CC(C)(C)C6)cc5)nc4s3)ccc2n1` [Compound 44, 6-((4-(3,3-dimethylazetidin-1-yl)phenyl)amino)-N-(2-methylimidazo[1,2-a]pyridin-6-yl)thieno[2,3-b]pyridine-2-carboxamide], `COc1nc(NC(=O)c2cc3ccc(N4CCC(N(C)C)C4)nc3s2)cn2cc(C)nc12` (single isomer, unassigned) [Compound 199] is lower in IC50: 1 to 9 µM for the first, less than 0.1 µM for the second. The second is the more potent here.

System: mHTT protein
Assay: not given
Settings: HD patient cells; cited from earlier work

For `CC1(C)CC(Oc2ccc(-c3ccc(-c4cn[nH]c4)cc3O)nn2)CC(C)(C)N1` [branaplam], the mHTT protein levels is listed as “lowers mHTT protein levels”.

System: mHTT protein
Assay: not given
Settings: HD mouse model; cited from earlier work

For `CC1(C)CC(Oc2ccc(-c3ccc(-c4cn[nH]c4)cc3O)nn2)CC(C)(C)N1` [branaplam], the mHTT protein levels is given as “lowers mHTT protein levels”.

System: mHTT protein
Assay: not given
Settings: blood samples from SMA Type I patients dosed orally; cited from earlier work

For `CC1(C)CC(Oc2ccc(-c3ccc(-c4cn[nH]c4)cc3O)nn2)CC(C)(C)N1` [branaplam], the mHTT protein levels is given as “lowers mHTT protein levels”.
